Data: the METLIN SMRT retention time set (Domingo-Almenara et al. 2019)

assay: gradient 5% acetonitrile 3 min, to 50% in 2 min, to 85% in 15 min, held 3 min, 100 µL/min; conditions: column: Zorbax Extend-C18 2.1 x 50 mm; eluents: water / acetonitrile, 0.1% formic acid
How it was run: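 Each retention time is based on an adduct peak selected computationally and verified by manual inspection. Measurements used HPLC–quadrupole time-of-flight mass spectrometry in positive and negative ionization mode on mixtures of ~100 pure standards. Chromatography ran on a Zorbax Extend-C18 column (2.1 × 50 mm, 1.8 μm) at 100 μL/min with water and acetonitrile, each containing 0.1% formic acid, and dead and dwell volumes of 40 μL and 900 μL.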

Row | RP-LC retention time [s] | SMILES
1 | 702 | Cc1cc(=O)c2cc(C(=O)Nc3nc4ccccc4s3)ccc2[nH]1
2 | 774 | CCOc1ccc(NC(=O)Cn2nc(N3CCOCC3)c3ccccc3c2=O)cc1
3 | 694 | CCCNC(=O)C1CCN(c2ccc(SCC(=O)Nc3ccc(CC)cc3)nn2)CC1
4 | 827 | Cc1oc2ccn(Cc3ccccc3F)c(=O)c2c1C(=O)NCc1cc(F)cc(F)c1
5 | 793 | CCc1nnc(-c2ccc3ccn(CC(=O)NCc4cc(OC)ccc4OC)c3c2)o1
6 | 966 | O=C(CCC1CCCN(S(=O)(=O)c2ccccc2F)C1)NCc1cc(F)ccc1F (centres undefined)
7 | 893 | CCOc1cccc(CNC(=O)c2nnc(-c3ccc(S(=O)(=O)N(C)C)cc3)o2)c1
8 | 824 | Cc1ccc(Cn2c(=O)n(CCNC(=O)Cc3ccsc3)c3ncccc32)cc1
9 | 874 | O=C(Nc1ccc(Cl)cc1)C1CCN(C(=O)c2ncn3c2COC(c2ccc(F)cc2)C3)CC1 (centres undefined)
10 | 1070 | CC(C)c1ccc(NC(=O)Cn2nc(N3CCSCC3)c3ccccc3c2=O)cc1
11 | 780 | O=C(Nc1ccc(-c2cn3c(C(=O)N4CCCC4)csc3n2)cc1)c1ccccc1
12 | 832 | O=C(Nc1cccc(F)c1)C1CCN(C(=O)c2ncn3c2COC(c2ccc(F)cc2)C3)CC1 (centres undefined)
13 | 903 | Cc1nc(-c2ccc(-c3noc(CNC(=O)Cc4ccccc4)n3)cc2)cs1
14 | 721 | O=C(NC1CCN(c2cc(-c3ccc(Cl)cc3)[nH]n2)C1)c1cccc(F)c1 (centres undefined)
15 | 562 | Cn1ncc2c(N3CCCC3)nc(C(=O)NCc3cccnc3)nc21
16 | 913 | CN(CC#N)C(=O)c1ccc(N2CCc3ccccc32)s1
17 | 995 | CCc1ccc(Nc2nc(C(=O)NC3CCCCC3)nc3ccccc23)cc1

Row | RP-LC retention time [s] | SMILES
18 | 688 | CC(=O)Oc1ccc(Nc2cc(C)nc3nc(-c4cccnc4)nn23)cc1
19 | 997 | O=C(Nc1cccc(Cl)c1)N1CCc2nc(-c3ccccc3)ncc2C1
20 | 939 | COc1ccc(C2CC(=O)N(c3cccc(Cl)c3)C(=O)C2)cc1
21 | 1060 | O=C(NCc1ccc(F)cc1Cl)c1sc2ncccc2c1-n1cccc1
22 | 804 | CCN(c1ccc(OC)cc1)S(=O)(=O)c1ccc2c(c1)CCCC(=O)N2
23 | 772 | CCc1ccc(S(=O)(=O)N2CCC3(CC2)NCCN=C3NCc2cccc(F)c2)cc1
24 | 770 | COc1cc([C@@H]2c3cc4c(cc3[C@H](O)[C@@H](CO)[C@@H]2C(=O)NCc2ccc(OC(C)C)cc2)OCO4)cc(OC)c1OC
25 | 853 | O=C(CN1CCN(Cc2ccccc2F)C1=O)NCc1ccccc1Br
26 | 766 | CN1C(=O)CO[C@@H](C(=O)Nc2ccc(F)cc2F)[C@@H]1c1ccccc1
27 | 589 | CC(C)n1cnc(S(=O)(=O)N2CCC(C(=O)NCc3ccc(N(C)C)cc3)CC2)c1
28 | 672 | CC(=O)Nc1ccc(OCC(=O)NCc2cc(F)cc(F)c2)nc1
29 | 887 | O=C(NCCc1ccco1)c1ccc2ccnc(N3CCN(c4ccc(Cl)cc4)CC3)c2c1
30 | 884 | O=C(NCc1ccc2c(c1)OCCCO2)c1ccc(Br)cc1
31 | 563 | CN(C)CCNC(=O)c1cc(S(=O)(=O)N2CCOCC2)ccc1Cl
32 | 625 | COc1ccc(CSc2nc3ccccc3[nH]2)cc1
33 | 756 | CCOc1ccc(C(=O)N2CCC(n3c(-c4ccoc4)nc4cccnc43)C2)cc1 (centres undefined)

Further lines, the compound ahead of its results:

Row | SMILES | RP-LC retention time [s]
34 | CN1CCN(C(=O)CSc2nccnc2Sc2ccccc2)CC1 | 637
35 | COc1ccc(OC)c2[nH]c(C(=O)N[C@H](C(=O)O)c3ccccc3)cc12 | 891
36 | CCOC(=O)c1cn(CC(=O)NCCC(C)C)c2nc(C)ccc2c1=O | 723
37 | O=C(CCSc1ccccc1)Nc1ccc2c(c1)CN(C(=O)C1CC1)CC2 | 816
38 | Cc1cc(C(F)F)n2nc(C(=O)Nc3cc(F)ccc3C)nc2n1 | 852
39 | O=C(c1ccc(Br)o1)N1CCC(n2cnnc2C2CC2)CC1 | 631
40 | Cc1noc2ncn(CC(=O)Nc3ccccc3Br)c(=O)c12 | 761
41 | Cc1ccc2c(c1)cc(S(=O)(=O)c1ccccc1)c(=O)n2CC(=O)NC(C)C | 808
42 | COc1ccc(-n2ccn3c(CCC(=O)NCCc4c[nH]c5ccccc45)nnc3c2=O)cc1 | 704
43 | CC(C)c1ccc(NC(=O)Cc2nnc(-c3ccc4ncccc4c3)o2)cc1 | 854
44 | COc1cccc(N2CCCn3c2nc2c3c(=O)n(CC(=O)O)c(=O)n2C)c1 | 671
45 | CN(Cc1ccco1)C(=O)C1c2ccccc2CC(=O)N1Cc1ccccc1 (centres undefined) | 861
46 | COc1cccc(-n2cc(C(=O)OCCc3ccccn3)c3ccccc3c2=O)c1 | 714
47 | O=C(NC1CCCCCC1)C1CCCN(c2nccnc2Oc2ccccc2)C1 (centres undefined) | 1060
48 | Cc1ccc(-c2ncccc2CNS(=O)(=O)c2cccs2)cc1 | 675
49 | COC(=O)COc1cc(-c2cccc(Cl)c2)nc2ccc(NC(=O)c3ccco3)cc12 | 886
50 | COc1cc(Nc2nc3c(s2)CCCC3c2ccc(F)cc2)ccc1-n1cnc(C)c1 (centres undefined) | 1010
51 | Cc1ccccc1OCC(=O)N1C[C@@H]2C[C@H](NC(=O)c3ccccc3)[C@H]1C2 | 813
52 | O=S(=O)(NCc1ccccn1)c1ccc(F)c(Cl)c1 | 643

Row | SMILES | RP-LC retention time [s]
53 | COc1ccc(CCNc2nc3ccncc3n(C(C)C)c2=O)cc1OC | 631
54 | CCc1cccc(NS(=O)(=O)c2cc(-c3[nH]ncc3C(=O)N3CCCCC3)oc2C)c1 | 819
55 | CC(C)Cn1cc(S(=O)(=O)Nc2ccccc2F)c2cccnc21 | 926
56 | CCc1cccc(NC(=O)N2CCCC2c2nncn2C2CCCC2)c1 (centres undefined) | 742
57 | CSc1ccc(CNC(=O)C2CCCN(C(=O)c3[nH]c(C)c(C(=O)OC(C)C)c3C)C2)cc1 (centres undefined) | 929
58 | O=C(CSc1ccc(N2CCCC(C(=O)NC3CC3)C2)nn1)Nc1ccc(C(F)(F)F)cc1 (centres undefined) | 729
59 | NC(=O)C1CCN(S(=O)(=O)c2ccc3[nH]cc(C(=O)O)c(=O)c3c2)CC1 | 596
60 | CCc1nc2c(c(=O)n1CC(=O)Nc1ccccc1OC)CN(Cc1ccccc1)CC2 | 650
61 | CCC(C)NC(=O)C1CCN(c2cnc(N3CCN(CC)CC3)nc2)CC1 (centres undefined) | 575
62 | CCCn1c(=O)sc2cc(S(=O)(=O)N3CCC(C(=O)Nc4ccc(F)c(F)c4)CC3)ccc21 | 1030
63 | CC1(C(=O)NC2CCCCCC2)CN(S(C)(=O)=O)CC(=O)N1Cc1cccc(F)c1 (centres undefined) | 885
64 | COCC(=O)N[C@@H]1CN(C2CCCCCC2)CC[C@@H]1CO | 561
65 | CCn1nc(C)c(CCNC(=O)Cn2c3ccccc3c3cnn(C)c(=O)c32)c1C | 627
66 | CCCCCc1cccnc1 | 669
67 | Cc1cccc(Nc2c(-c3ccc(N(C)C)cc3)nc3ncccn23)c1 | 745
68 | COc1ccc(Cl)c2c(=O)c3c([nH]c12)CCN(CC(=O)Nc1ccc(C)cc1)C3 | 632
69 | COC(=O)COC(=O)c1cn(-c2ccc(C)cc2)c(=O)c2ccccc12 | 986
70 | CCOC(=O)c1ccc(Nc2ncnc3c2ncn3CC)cc1 | 760
71 | O=C(Nc1nnc(SCC(=O)N2CCc3ccccc32)s1)NC1CCCCC1 | 839

Row | SMILES | RP-LC retention time [s]
72 | CN(C(=O)c1cc(-c2cccs2)n(C2CCS(=O)(=O)C2)n1)C1CCS(=O)(=O)C1 (centres undefined) | 662
73 | Cc1ccc(C(=O)N2CCN(c3nc(CN4CCOCC4)cs3)CC2)cc1F | 629
74 | Cc1ccc(S(=O)(=O)N2CCC3(CC2)NCCN=C3NCc2cc(F)cc(F)c2)cc1 | 734
75 | CCOc1ccc(NC(=O)CSC2CCCCC2)cc1 | 975
76 | COC(=O)c1c(NCc2cccnc2)c2cccc(Cl)c2[nH]c1=O | 566
77 | O=c1n(Cc2ccc(Cl)cc2)nc2c(S(=O)(=O)N3CCCCCC3)cccn12 | 991
78 | CCCC(CCC)C(=O)N1CCC(Cc2nnc(C3CCOCC3)o2)C1 (centres undefined) | 755
79 | Cc1ccsc1C(=O)Nc1cnn(-c2ncncc2N2CCC(C)CC2)c1 | 918
80 | Cc1ccccc1NC(=O)NCC1CCOCC1 | 658
81 | CCc1ccc(N2C(=O)CN(S(C)(=O)=O)CC2(C)C(=O)NC2CCCCCCC2)cc1 (centres undefined) | 1000
82 | COc1ccc(N2CCN(c3ccc(-c4nc(-c5ccccc5)no4)cn3)CC2)cc1 | 1240
83 | COc1ccc(-c2csc3ncnc(SCc4c(C)noc4C)c23)cc1 | 1030
84 | Cc1cc(N2CCCC2)n2nc(CN3CCCCC3C)nc2n1 (centres undefined) | 566
85 | CCOc1ccc(S(=O)(=O)N2CCC(C(=O)NC3CCCCC3)CC2)cc1 | 922
86 | CC1=C(c2ccc(C)c(C)c2)S(=O)(=O)N=C1N1CCCN(C(=O)c2ccco2)CC1 | 836
87 | COc1ccc(NC(=O)CSc2cc(N3CCN(c4ccccc4OC)CC3)ncn2)c(OC)c1 | 791
88 | COc1ccc(Cl)cc1C(=O)N1CCN(c2cc(C)nc(N3CCOCC3)n2)CC1 | 644
89 | CC(C)n1cc(S(=O)(=O)Nc2cccc(Cl)c2)c2cccnc21 | 946
